From the NIST ThermoML archive (doi:10.1021/je201289w)

Assays:
[1] = 101.33 kPa, Liquid, Vibrating tube method
[2] = refractive index (Na D-line) (dimensionless); settings: 101.33 kPa, Liquid, Standard Abbe refractometry

CCn1cc[n+](C)c1.F[B-](F)(F)F [1-ethyl-3-methylimidazolium tetrafluoroborate]
Settings | mass density, [1] [kg/m3] | refractive index, [2]
283.15 K | 1292 | 1.41546
288.15 K | 1288.2 | 1.41423
293.15 K | 1284.3 | 1.413
298.15 K | 1280.5 | 1.41177
303.15 K | 1276.7 | 1.41055
308.15 K | 1272.9 | 1.40934
313.15 K | 1269.1 | 1.4081
318.15 K | 1265.3 | 1.4069
323.15 K | 1261.6 | 1.4057
328.15 K | 1257.8 | 1.40452
333.15 K | 1254 | 1.40327
338.15 K | 1250.2 | 1.40211
343.15 K | 1246.5 | 1.40093
348.15 K | 1242.8 | 1.39975
353.15 K | 1239.2 | 1.39858

CCn1cc[n+](C)c1.N#C[S-] [1-ethyl-3-methylimidazolium thiocyanate]
Settings | mass density, [1] [kg/m3] | refractive index, [2]
283.15 K | 1124.7 | 1.556
288.15 K | 1121.7 | 1.5545
293.15 K | 1118.6 | 1.55299
298.15 K | 1115.5 | 1.55149
303.15 K | 1112.4 | 1.54999
308.15 K | 1109.4 | 1.5485
313.15 K | 1106.3 | 1.54702
318.15 K | 1103.3 | 1.54557
323.15 K | 1100.3 | 1.54409
328.15 K | 1097.3 | 1.54263
333.15 K | 1094.4 | 1.54119
338.15 K | 1091.4 | 1.53973
343.15 K | 1088.4 | 1.53831
348.15 K | 1085.5 | 1.53687
353.15 K | 1082.6 | 1.53545

CCn1cc[n+](C)c1.CS(=O)(=O)[O-] [1-ethyl-3-methylimidazolium methanesulfonate]
Settings | mass density, [1] [kg/m3] | refractive index, [2]
283.15 K | 1252 | 1.49994
288.15 K | 1248.4 | 1.49855
293.15 K | 1245 | 1.49718
298.15 K | 1241.6 | 1.49582
303.15 K | 1238.2 | 1.49444
308.15 K | 1234.9 | 1.49308
313.15 K | 1231.5 | 1.49172
318.15 K | 1228.2 | 1.49039
323.15 K | 1224.8 | 1.48905
328.15 K | 1221.5 | 1.48768
333.15 K | 1218.1 | 1.48638
338.15 K | 1214.8 | 1.48498
343.15 K | 1211.5 | 1.48367
348.15 K | 1208.1 | 1.4823
353.15 K | 1204.8 | 1.48095

CCn1cc[n+](C)c1.O=S(=O)([N-]S(=O)(=O)C(F)(F)F)C(F)(F)F
Settings | mass density, [1] [kg/m3] | refractive index, [2]
283.15 K | 1533.8 | 1.42738
288.15 K | 1528.7 | 1.42594
293.15 K | 1523.6 | 1.42451
298.15 K | 1518.5 | 1.42309
303.15 K | 1513.4 | 1.42166
308.15 K | 1508.4 | 1.42022
313.15 K | 1503.3 | 1.41881
318.15 K | 1498.3 | 1.4174
323.15 K | 1493.3 | 1.41597
328.15 K | 1488.4 | 1.41458
333.15 K | 1483.4 | 1.41319
338.15 K | 1478.5 | 1.41177
343.15 K | 1473.6 | 1.41037
348.15 K | 1468.7 | 1.40902
353.15 K | 1463.9 | 1.4076

CCCCn1cc[n+](C)c1.O=S(=O)([N-]S(=O)(=O)C(F)(F)C(F)(F)C(F)(F)C(F)(F)F)C(F)(F)C(F)(F)C(F)(F)C(F)(F)F
Settings | mass density, [1] [kg/m3] | refractive index, [2]
283.15 K | 1629.5 | 1.39249
288.15 K | 1623.4 | 1.39104
293.15 K | 1617.3 | 1.38955
298.15 K | 1611.1 | 1.38807
303.15 K | 1605 | 1.38662
308.15 K | 1599.1 | 1.38516
313.15 K | 1593.2 | 1.38367
318.15 K | 1587.4 | 1.38222
323.15 K | 1581.6 | 1.38078
328.15 K | 1575.8 | 1.3793
333.15 K | 1570 | 1.37783
338.15 K | 1564.2 | 1.37638
343.15 K | 1558.4 | 1.37496
348.15 K | 1552.6 | 1.3735
353.15 K | 1546.8 | 1.37206

CCn1cc[n+](C)c1.N#CN=C=[N-] [1-ethyl-3-methylimidazolium dicyanamide]
Settings | mass density, [1] [kg/m3] | refractive index, [2]
283.15 K | 1111.4 | 1.51774
288.15 K | 1107.9 | 1.51605
293.15 K | 1104.6 | 1.51441
298.15 K | 1101.2 | 1.51278
303.15 K | 1097.9 | 1.51121
308.15 K | 1094.6 | 1.50963
313.15 K | 1091.3 | 1.50808
318.15 K | 1088 | 1.50655
323.15 K | 1084.8 | 1.50502
328.15 K | 1081.5 | 1.50351
333.15 K | 1078.3 | 1.50191
338.15 K | 1075.2 | 1.5003
343.15 K | 1072 | 1.49865
348.15 K | 1068.9 | 1.49708
353.15 K | 1065.8 | 1.49557

CCC[N+]1(C)CCCC1.O=S(=O)([N-]S(=O)(=O)C(F)(F)F)C(F)(F)F
Settings | mass density, [1] [kg/m3] | refractive index, [2]
283.15 K | 1441 | 1.42474
288.15 K | 1436.4 | 1.42336
293.15 K | 1431.9 | 1.42201
298.15 K | 1427.4 | 1.42064
303.15 K | 1422.8 | 1.41925
308.15 K | 1418.3 | 1.41792
313.15 K | 1413.8 | 1.41656
318.15 K | 1409.3 | 1.41519
323.15 K | 1404.8 | 1.41389
328.15 K | 1400.4 | 1.41252
333.15 K | 1396 | 1.41119
338.15 K | 1391.6 | 1.40986
343.15 K | 1387.2 | 1.40853
348.15 K | 1382.9 | 1.40718
353.15 K | 1378.6 | 1.40589

CCOS(=O)(=O)[O-].CCn1cc[n+](C)c1 [1-ethyl-3-methylimidazolium ethyl sulfate]
Settings | mass density, [1] [kg/m3] | refractive index, [2]
283.15 K | 1247.7 | 1.48317
288.15 K | 1244.3 | 1.48185
293.15 K | 1241 | 1.48053
298.15 K | 1237.6 | 1.47921
303.15 K | 1234.3 | 1.47789
308.15 K | 1231 | 1.47657
313.15 K | 1227.6 | 1.47528
318.15 K | 1224.3 | 1.47395
323.15 K | 1220.9 | 1.47262
328.15 K | 1217.6 | 1.4713
333.15 K | 1214.2 | 1.46994
338.15 K | 1210.9 | 1.4685
343.15 K | 1207.6 | 1.46723
348.15 K | 1204.2 | 1.46596
353.15 K | 1200.9 | 1.46468

CCn1cc[n+](C)c1.O=S(=O)([O-])O [1-ethyl-3-methylimidazolium hydrogen sulfate]
Settings | mass density, [1] [kg/m3] | refractive index, [2]
283.15 K | 1376.7 | 1.50042
288.15 K | 1373.6 | 1.49931
293.15 K | 1370.5 | 1.4982
298.15 K | 1367.4 | 1.4971
303.15 K | 1364.3 | 1.49601
308.15 K | 1361.1 | 1.49489
313.15 K | 1357.8 | 1.49379
318.15 K | 1354.6 | 1.49269
323.15 K | 1351.5 | 1.49161
328.15 K | 1348.5 | 1.49052
333.15 K | 1345.4 | 1.48944
338.15 K | 1342.4 | 1.48836
343.15 K | 1339.4 | 1.48727
348.15 K | 1336.4 | 1.48623
353.15 K | 1333.4 | 1.48512

CCn1cc[n+](C)c1.N#C[B-](C#N)(C#N)C#N [1-ethyl-3-methylimidazolium tetracyanoborate]
Settings | mass density, [1] [kg/m3] | refractive index, [2]
283.15 K | 1041 | 1.45284
288.15 K | 1037 | 1.45108
293.15 K | 1032.9 | 1.44936
298.15 K | 1028.9 | 1.44763
303.15 K | 1024.9 | 1.44592
308.15 K | 1020.9 | 1.44421
313.15 K | 1016.9 | 1.44252
318.15 K | 1013 | 1.44081
323.15 K | 1009.1 | 1.43913
328.15 K | 1005.2 | 1.43745
333.15 K | 1001.3 | 1.43578
338.15 K | 997.4 | 1.43412
343.15 K | 993.6 | 1.43248
348.15 K | 989.8 | 1.43085
353.15 K | 986 | 1.42922
